This data set in a line: in vitro. The following applies: human, hela cells, % viability.

On to `Cc1nnc(CNC(=O)c2cc(-c3ccc(Cl)cc3)nc3ccccc23)o1` [CBK297717], for which the viability at 28.5 h, 10 µM stood at 109%.

On to `Cn1c(C(=O)O)cc2cc(Oc3ccccc3)ccc21` [CBK286873], for which the viability at 28.5 h, 10 µM was determined as 86.3%.

On to `O=C(c1cccnc1)N1C2CCC1CC(c1ccc(F)cc1)C2` (stereo not shown) [CBK283762], for which the viability at 28.5 h, 10 µM amounted to 98.3%.

For `CCc1ccc(Nc2nc(N)nc(CN3CCN(c4ccccn4)CC3)n2)cc1` [CBK270064], the viability at 28.5 h, 10 µM came to 102%.

Consider `COc1nnc(-c2ccc(N3CCOCC3)c(NC(=O)COc3cccc(C)c3)c2)c2ccccc12` [CBK266207], for which the viability at 28.5 h, 10 µM worked out at 81.9%.

Consider `O=C(CN(c1cccc(Cl)c1)S(=O)(=O)c1ccccc1)NN=C1CCCCC1` [CBK262470], for which the viability at 28.5 h, 10 µM was 114%.

Consider `CC(=O)N1CCCc2cc(C(O)CN3CCC(O)(c4ccc(F)cc4)CC3)ccc21` (stereo not shown) [CBK286481], for which the viability at 28.5 h, 10 µM was determined as 88.1%.

`O=C(O)c1ccc(OCC(O)Cn2nnc3ccccc32)cc1` (stereo not shown) [CBK286616]: the viability at 28.5 h, 10 µM is 103%.

As to `COc1ccccc1NC(=O)CN1CCN(CCC(=O)c2ccc(C(C)C)cc2)CC1` [CBK023925C], the viability at 28.5 h, 10 µM came out at 95%.

`NNC(=O)c1c(NC(=O)c2ccccc2)sc2c1CCC2` [CBK262516]: the viability at 28.5 h, 10 µM was found to be 104%.

`CCOC(=O)c1sc2cccc(F)c2c1COC(=O)c1ccc(CNC(N)=O)cc1` [CBK297873]: the viability at 28.5 h, 10 µM worked out at 101%.

On to `O=c1[nH]c2ccc(NS(=O)(=O)c3ccc4c(c3)OCCCO4)cc2[nH]1` [CBK295315], for which the viability at 28.5 h, 10 µM worked out at 87.7%.

Regarding `COCCn1c(C)cc(C(=O)CSc2cc(C)c3ccccc3n2)c1C` [CBK266437], the viability at 28.5 h, 10 µM is 70.3%.

On to `CC(C)Oc1cncc(Cl)n1` [CBK113321], for which the viability at 28.5 h, 10 µM is 106%.

Turning to `COc1cc(-c2noc(-c3cc(-c4ccccc4)n[nH]3)n2)cc(OC)c1OC` [CBK287774], the viability at 28.5 h, 10 µM worked out at 92.3%.

Take `COc1cc(CNC(=O)c2cncc(-c3ccc(C(=O)N4CCOCC4)cc3)c2)cc(OC)c1OC` [CBK158632]: the viability at 28.5 h, 10 µM is 114%.

With `COc1ccc(CNc2cncc(-c3cncc(OC)c3)n2)cc1` [CBK065388], the viability at 28.5 h, 10 µM was 98.5%.

As to `CC1CCN(Cc2ccc(-c3cn(CC(=O)NCc4ccc(Br)cc4)nn3)cc2)CC1` [CBK164709], the viability at 28.5 h, 10 µM turned out to be 93%.

Regarding `CCC(=O)N1c2ccc(C(O)CN3CCSCC3)cc2CC1C` (stereo not shown) [CBK283122], the viability at 28.5 h, 10 µM came to 91.5%.

With `CN(C)CCNc1nc(-c2ccncc2)cnc1N` [CBK063580], the viability at 28.5 h, 10 µM turned out to be 102%.

Take `O=C(O)COc1ccccc1/C=N/NC(=O)Cc1ccc(Br)c2ccccc12` [CBK263116]: the viability at 28.5 h, 10 µM came to 85.6%.

For `Cc1c(-c2ccc(N(C)C)nc2)c(C(F)(F)F)nn1C` [CBK307320], the viability at 28.5 h, 10 µM came to 83.5%.

For `Cc1ccccc1OCC(=O)Oc1ccc(-c2cnc3ccccc3n2)cc1` [CBK264703], the viability at 28.5 h, 10 µM is 100%.

Regarding `Cc1cc(NC(=O)c2cccc(C#N)c2)c2ccccc2n1` [CBK116267], the viability at 28.5 h, 10 µM came out at 101%.

In the case of `O=C(O)CCCNS(=O)(=O)/C=C/c1ccccc1` [CBK287170], the viability at 28.5 h, 10 µM was 85.1%.

In the case of `C=CCn1cc(CN(CCN(C)C)Cc2ccc(C)o2)c(C)n1` [CBK282844], the viability at 28.5 h, 10 µM turned out to be 101%.

Turning to `Cc1cnn(CC(=O)N2CCCCC2CN2CCCCCC2)c1` (stereo not shown) [CBK282103], the viability at 28.5 h, 10 µM was 98.9%.

Regarding `COCC1OC(n2cc(C)c(=O)[nH]c2=O)CC1O` (stereo not shown) [CBK201338], the viability at 28.5 h, 10 µM was determined as 94.5%.

As for `Cc1nn(-c2ccc(F)cc2)c2[nH]c(=O)c(CNC3CC3)cc12` [CBK283121], the viability at 28.5 h, 10 µM was 98.1%.

In the case of `O=C(O)c1sc2ncccc2c1NS(=O)(=O)c1cc(Cl)sc1Cl` [CBK050650], the viability at 28.5 h, 10 µM stood at 78.2%.

Consider `Nc1nc(NCCc2ccccc2)nc(-c2cc(Cl)ccc2O)n1` [CBK074551], for which the viability at 28.5 h, 10 µM came to 91.8%.

Turning to `NC(=O)CN1CCCN(c2cc(OCCc3c[nH]c4ccccc34)ncn2)CC1` [CBK091546], the viability at 28.5 h, 10 µM is 96.6%.

Take `Cc1csc(C(Cc2ccsc2)NC(=O)CCn2cccn2)n1` (stereo not shown) [CBK285149]: the viability at 28.5 h, 10 µM worked out at 93.7%.

In the case of `Cc1cccc(CCNC(=O)N2CCN(Cc3ccccn3)CC2)c1` [CBK304057], the viability at 28.5 h, 10 µM is 103%.

As to `Cc1nc2c(C)cccc2c(O)c1CN1CCCCCC1` [CBK264512], the viability at 28.5 h, 10 µM was determined as 98.1%.

On to `O=C(Cn1ncc2cccn2c1=O)NCc1ccc(F)cc1` [CBK283851], for which the viability at 28.5 h, 10 µM was 82.8%.

In the case of `O=C(COc1ccc(S(=O)(=O)N2CCOCC2)cc1)N1CCc2ccccc2C1` [CBK268350], the viability at 28.5 h, 10 µM came out at 92.1%.

Consider `O=C(O)c1ccccc1-c1ccccc1C(=O)NCCc1ccccc1` [CBK263394], for which the viability at 28.5 h, 10 µM turned out to be 113%.

For the compound `O=C(c1cnoc1-c1ccc(F)cc1)N1CCCC1` [CBK153707], the viability at 28.5 h, 10 µM is 97.9%.

Regarding `O=C(Nc1ccc(F)cc1)c1ccsc1NS(=O)(=O)Cc1ccccc1[N+](=O)[O-]` [CBK042313], the viability at 28.5 h, 10 µM was 91.7%.

In the case of `COc1ccc2c(c1)OC1(CCN(C(=O)c3ccc(C(C)=O)cc3)CC1)CC2=O` [CBK156457], the viability at 28.5 h, 10 µM was 94.2%.

For `CC(C)c1csc(NC(=O)CC2CCN(S(=O)(=O)c3cccc(F)c3)CC2)n1` [CBK285902], the viability at 28.5 h, 10 µM stood at 83.4%.

For the compound `O=C(O)c1ccc(Oc2cccc([N+](=O)[O-])c2)cc1C(=O)O` [CBK261179], the viability at 28.5 h, 10 µM came out at 110%.

As to `COc1cc(Nc2cc(-n3nc(C)cc3C)ncn2)cc(OC)c1OC` [CBK288594], the viability at 28.5 h, 10 µM is 93.2%.

Consider `CCOC(=O)c1cnc(SCC(=O)N2c3ccccc3SC3C=CC=CC32)nc1N` (stereo not shown) [CBK269029], for which the viability at 28.5 h, 10 µM amounted to 99.6%.

`Cc1cccc(Cc2cccc(C3CCCN(C(=O)c4ccc(=O)[nH]c4)C3)n2)c1` (stereo not shown) [CBK286243]: the viability at 28.5 h, 10 µM worked out at 95.9%.

In the case of `NNC(=O)Nc1ccc(Cc2ccc(NC(=O)NN)cc2)cc1` [CBK262017], the viability at 28.5 h, 10 µM is 88.5%.

In the case of `COc1ccc(-c2ccccc2NC(=O)C2CC(=O)N(Cc3cccc(F)c3)C2)cc1` (stereo not shown) [CBK285937], the viability at 28.5 h, 10 µM was found to be 89.3%.

As for `Cn1nnnc1SCCNCc1ccc2c(c1)n(C)c(=O)n2C` [CBK270080C], the viability at 28.5 h, 10 µM was found to be 99.8%.

`Oc1cccc(-c2nccnc2N[C@@H]2CCN(Cc3ccccc3)C2)c1` [CBK037017]: the viability at 28.5 h, 10 µM worked out at 98.2%.

Turning to `NCCNc1cccc2c1ccn2S(=O)(=O)c1ccccc1` [CBK028470C], the viability at 28.5 h, 10 µM turned out to be 80.2%.

With `CSc1nsc(SCC(=O)c2ccc(Oc3ccccc3)cc2)n1` [CBK269104], the viability at 28.5 h, 10 µM was 96.8%.

With `CC1CCC(C(=O)Nc2ccc(C(=O)O)cc2)CC1` (stereo not shown) [CBK287234], the viability at 28.5 h, 10 µM was 94.8%.

For `CC1(O)CCCN(C(=O)c2c[nH]nc2-c2cc3ccccc3o2)C1` (stereo not shown) [CBK305555], the viability at 28.5 h, 10 µM stood at 88.3%.

`c1ccc(-c2n[nH]c(-c3ccncc3)c2-c2nc3ccccc3[nH]2)cc1` [CBK262180]: the viability at 28.5 h, 10 µM came out at 88%.

With `CC(=O)N1N=C(c2cccnc2)OC1(C)C` [CBK023619], the viability at 28.5 h, 10 µM turned out to be 90.4%.

With `COc1ccc(Cl)cc1NC(=O)C1CC(=O)N=C(N2CCOCC2)N1` (stereo not shown) [CBK268893], the viability at 28.5 h, 10 µM amounted to 100%.

On to `CN(Cc1ccccc1)C1(O)C(=O)Nc2ccc(Cl)cc21` (stereo not shown) [CBK269703], for which the viability at 28.5 h, 10 µM is 95.9%.

For orientation: viability means a read-out of living cells in per cent, often relative to untreated cells.

(Values after paper PMC12040169 (PLOS Biology, 2025).)
